Legend:
CD8 positive cells = assay: intracellular interferon γ staining (flow cytometry); assay type: cell-based, human; parameters: key: ++ refers to a sample found to produce interferon γ in 3/3; + refers to a sample found to produce interferon γ in ⅓ to ⅔; conditions: 5×10^5 lymphocytes, peptide 1 μg/ml, 4 hours
Experimental: (§1) Peripheral blood of healthy individuals with the same HLA-A*02:01 as the subject sample (tumor patient) was used. An experiment of reactivity was conducted using peptides that were manufactured therefor.
The obtained samples were subjected to intracellular interferon γ staining. 5×10^5 lymphocytes were stimulated and cultured for 4 hours in a 200 μl medium. Neoantigen peptides and control peptides were added so that the final concentration was 1 μg/ml for stimulation. An unstimulated control was also prepared. BioLegend Brefeldin A Solution (1,000×) was added so that the final concentration would be 5.0 μg/ml during stimulation. After the completion of culturing, the cells were collected and stained for 30 minutes at 4° C. with Fixable Viability Dye eFluor780 (eBioscience 65-0865-18), FITC labeled anti-CD4 antibody (BD Pharmingen™557307), ECD labeled anti-CD8 antibody (BECKMAN COULTER 41116015) and PerCP-CY5.5 labeled anti-CD3 antibody (Biolegend 300430).
The cells were treated for 15 minutes with Intraprep permeabilization reagent (Immunotech, Marseille, France). The cells were stained for 15 minutes with PE labeled anti-IL-2 antibody (BD Pharmingen™559334), Alexa700 labeled anti-TNFα antibody (BD Pharmingen™557996), and Pacific Blue labeled anti-IFN-γ antibody (Biolegend 502522)
After suspension into PBS containing 0.5% PFA, measurement was taken with Gallios flow cytometer (BECKMAN COULTER). For intracellular flow cytometry sorting, CD8 positive cells were used to analyze the production of interferon γ.

[1] = system: peripheral blood of healthy individuals with HLA-A*02:01; assay: interferon γ ELISPOT assay; assay type: cell-based, human; parameters: key: ++ refers to a sample found to produce interferon γ in 3/3; + refers to a sample found to produce interferon γ in ⅓ to ⅔; conditions: 1×10^5 cells stimulated 16 hours; HLA-A*02:01 healthy donor peripheral blood
Experimental: as §1
The conducted assay performed interferon γ ELISPOT and intracellular interferon γ staining. For the interferon γ ELISPOT, MABTECH anti-human IFN-γ mAb 1-D1K, purified (3420-3-250) was used as a capture antibody. In addition, MILLIPORE MultiScreen HTS 96-well Filtration Plate was used.
Briefly stated, the following was performed. • (1) Cytokine (interferon-γ in this example) specific monoclonal antibodies (MABTECH anti-human IFN-γ mAb 1-D1K, purified (3420-3-250)) were immobilized on the solid layer surface. MILLIPORE MultiScreen HTS 96-well Filtration Plate was used in this example. • (2) 1×10^5 cells were stimulated and cultured for 16 hours after washing. The secreted cytokines, i.e., interferon-γ, were bound to capture antibodies (Detection antibody; MABTECH anti-human IFN-γ mAb 7-B6-1, biotinylated (3420-6-250)) that were around the producing cells. After removing the cells by washing, anti-interferon γ antibodies for detection were added.
For biotin labeled detection antibodies, enzyme labeled streptavidin (MABTECH Streptavidin-HRP (3310-9)) was added. • (3) Next, BD ELISPOT AEC Substrate Set (551951) was used for coloration. This method allows the spot corresponding to the position where interferon γ (cytokine) producing cell was located to be seen. The obtained spots were counted with a Carl Zeiss KS ELISPOT (Minerva Tech). The frequency of positive cells was recorded. (Intracellular Interferon γ Staining)

Row | Substance | IFNγ secretion Intra (CD8 positive cells) | IFNγ secretion ELISPOT [1]
1 | 7 (VLNINDNEPV) [compound 7] | ++ | 
2 | 12 (NLKKLLVF) [compound 12] |  | ++
3 | 18 (ICFLALECLAH) [compound 18] |  | ++
4 | 21 (QLLEPEISFL) [compound 21] | ++ | 
5 | 27 (KVLQLLEPEI) [compound 27] | + | 
6 | 30 (ALYPFEFRS) [compound 30] | + | 
7 | 36 (ILQEYREDFV) [compound 36] | + | 
8 | 42 (KTFTYSSAL) [compound 42] |  | ++
9 | 43 (FQYSSPALPT) [compound 43] |  | ++
10 | FLALECLAHL [pepID 14] | ++ | ++
11 | FTYSSALKV [pepID 41] | ++ | ++
12 | NISSRIHTV [pepID 33] | ++ | +
